Assay: Henry solubility constant Hcp at 298.15 K (mol/(m3 Pa))
Details: reference: Copolovici and Niinemets (2015)

SMILES	Henry solubility constant Hcp
C=C1CC/C=C(\C)CC[C@H]2[C@H]1CC2(C)C [β-caryophyllene]	0.00037
CC1=CCCC2(C)C3CCC12CC3(C)C (stereo not drawn) [α-neoclovene]	0.00029
CC1=CCC23C[C@H]1C(C)(C)[C@H]2CC[C@@H]3C [α-cedrene]	0.00028
C=C/C(C)=C/C/C=C(\C)CCC=C(C)C [α-farnesene]	0.00034
C=CC(C)(O)CC/C=C(\C)CCC=C(C)C (stereo not drawn) [nerolidol]	0.00032
CC1=CCC2C3C1C2(C)CCCC3(C)C (stereo not drawn) [α-longipinene]	0.00034
C=C(C)C1CCC2=CCCC(C)C2(C)C1 (stereo not drawn) [valencene]	0.00032
CC1C=CCC2(C)C3CCC12CC3(C)C (stereo not drawn) [γ-neoclovene]	0.00029
CC(=O)O[C@H]1C[C@H]2CC[C@]1(C)C2(C)C [bornyl acetate]	0.00038
C/C1=C\CC/C(C)=C/CC(C)(C)/C=C/C1 [α-humulene]	0.00029
C=C(C)[C@H]1C=C2[C@H](C)CC[C@@H]2[C@H](C)CC1 [γ-gurjunene]	0.00033
C=C1[C@H]2C[C@H]3[C@@H](C(C)C)CC[C@]1(C)[C@H]3C2 [isosativene]	0.00039
C=C1CCCC2(C)C3CCC12CC3(C)C (stereo not drawn) [β-neoclovene]	0.00029

Reference: Sander's compilation of Henry's law constants (doi:10.1016/j.chemosphere.2015.07.075)
